US20140243422A1, “METHODS OF TREATING BEHAVIORAL AND PSYCHIATRIC DISORDERS” (ELAN PHARMACEUTICALS, INC., priority 2011, published 2014)

Tested on: patients with mild to moderate AD (MMSE 16-26)
Experiment: Phase 2 trial: safety and tolerability
Format: in vivo, human
Details: 250 mg bid, elderly study population
Experimental: The present study was a dose ranging study in Mild and Moderate AD patients (defined as having MMSE scores of 16-26 inclusive), and included 3 doses of scyllo-insoitol given bid (250 mg, 1000 mg, and 2000 mg) and placebo. The study was of 78 weeks duration and enrolled a total of 353 patients, and 351 received study drug (safety population). Due to safety findings in the 2 highest dose groups, these 2 groups were discontinued and the study's final efficacy analysis was based only on the 250 mg and placebo groups. The primary efficacy analysis was based on the overall population (mild and moderate), but the statistical analysis plan (SAP) Included subgroup analyses by disease severity, and defined Mild as patients with MMSE 23-26 and Moderate 16-22 inclusive. In the overall study population, total randomized to all 4 dose groups=353, total that received study drug=351 (safety population, at any dose). For placebo and 250 mg group, the overall m-ITT (modified intent-to-treat)=166, overall PPS (per protocol set)=96.
In summary, scyllo-inositol exposures ≧1000 mg bid provide less cognitive and functional benefit than the 250 mg bid dose. These high exposures may be associated with an increase in neuropsychiatric adverse events.

O[C@H]1[C@H](O)[C@@H](O)[C@H](O)[C@@H](O)[C@@H]1O [scyllo-inositol]
safety and CNS tolerability: acceptable safety and good CNS tolerability
